Experiments:
[1] = tested on: mouse model of retinal light disorders; assay: Retinal light disorder model test (ONL thickness); format: in vivo; details: BALB/cCr male mouse, 30 mg/kg oral 30 minutes before 2 hours white light, eyes taken after 4 days
Method: (Retinal Light Disorder Model Test)
The usefulness (improvement rate with respect to retinal light disorders) of the compound of the invention was evaluated using a mouse model of retinal light disorders, generally used as a model of retinal light disorders, (Investigative Ophthalmology & Visual Science, 2002; vol. 43; pp. 1162 to 1167). Here, the improvement rate with respect to the retinal light disorders was calculated based on the thickness of an outer nuclear layer (hereinafter, referred to as “ONL”), which is strongly interfered especially by light application among a retinal cell layers, in a tissue specimen of a perpendicular surface of an eyeball.
Moreover, in the present test, the ONL of a light application group to which only a base was administered was degraded to 30% to 50% of a normal light group.
A test compound was dissolved or suspended in a solvent (1% (w/v) methyl cellulose aqueous solution) and then an administration liquid was prepared so that the test compound to be 30 mg/kg body weight. The dose was set to 10 ml/kg body weight.
A 5-week-old BALB/cCr-based male mouse (weight of approximately 20 g) was bred in a dark place for 48 hours. Subsequently, the test compound administration liquid was orally administered (30 mg/kg). After 30 minutes, […] of white light was continuously applied to the mouse for 2 hours. Next, the mouse was bred in a breeding room with 50 lux of light for 4 days.
An anesthetic (secobarbital sodium) was intraperitoneally administered to anesthetize the mouse and then the mouse was exsanguinated to die. The top portion of the right eyeball was marked with a thread and the eyeball was extracted. […]
The ONL thickness in the tissue specimen was measured for every 200 μm between the optic nerve papilla to where upwardly spaced by 1 mm from the optic nerve papilla using Lumina Vision. The area (AUC) from the optic nerve papilla to where upwardly spaced by 1 mm from the optic papilla in the graph was calculated as an ONL area. […]

[2] = molecular target: T1, human platelet-derived thromboxane synthase (Homo sapiens, UniProt P24557); assay: Thromboxane synthase activity inhibitory action; format: biochemical; details: read-out: thromboxane synthase activity inhibition rate
T1 construct: host or cells: human recombinant cells (so in the source); platelets
T1 sequence (P24557 1-533): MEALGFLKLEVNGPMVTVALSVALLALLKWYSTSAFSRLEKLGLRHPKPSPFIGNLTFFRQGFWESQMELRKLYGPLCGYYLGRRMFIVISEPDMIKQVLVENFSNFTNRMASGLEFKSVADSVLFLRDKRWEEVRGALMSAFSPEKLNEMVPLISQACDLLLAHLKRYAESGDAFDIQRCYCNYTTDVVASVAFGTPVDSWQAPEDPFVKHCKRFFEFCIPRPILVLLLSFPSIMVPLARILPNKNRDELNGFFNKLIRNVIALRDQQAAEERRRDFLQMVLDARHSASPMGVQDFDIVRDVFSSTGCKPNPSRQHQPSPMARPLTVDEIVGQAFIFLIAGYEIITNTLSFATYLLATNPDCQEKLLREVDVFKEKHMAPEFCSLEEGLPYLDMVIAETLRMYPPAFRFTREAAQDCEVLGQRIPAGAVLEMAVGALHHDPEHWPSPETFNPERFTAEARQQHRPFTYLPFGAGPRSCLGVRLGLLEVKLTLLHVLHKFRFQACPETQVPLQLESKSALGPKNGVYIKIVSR
Method: The inhibitory action of the compound according to the present invention with respect to the activity of the present enzyme was examined using human platelet-derived thromboxane synthase.
Thromboxane synthase of human recombinant cells was reacted with 2.10 μM of prostaglandin H2 and the amount of thromboxane B2 which was a reaction product was measured by an enzyme-linked immunosorbent assay. 3 μM of the compound according to the present invention dissolved in dimethyl sulfoxide was added to the reaction system and the inhibition rate of thromboxane B2 generation (thromboxane synthase activity inhibition rate) was measured.

[3] = tested on: guinea pig liver microsome-derived lipid peroxidase; assay: Lipid peroxidase activity inhibitory action; format: biochemical; details: 3 μM
Method: The inhibitory action of the compound according to the present invention with respect to the activity of the present enzyme was examined using guinea pig liver microsome-derived lipid peroxidase.
Dunkin-Hartley guinea pig lung-derived lipid peroxidase was reacted with 0.25 M of polyvalent unsaturated fatty acids and the amount of malondialdehyde which was a reaction product was measured by an absorbance determination method. 3 μM of the compound according to the present invention dissolved in dimethyl sulfoxide was added to the reaction system and the inhibition rate of malondialdehyde generation (lipid peroxidase activity inhibition rate) was measured.

[4] = tested on: human recombinant MAP kinase 1; assay: MAP kinase 1 activity inhibitory action; format: biochemical; details: 3 μM
Method: The inhibitory action of the compound of the present invention with respect to the activity of the present enzyme was examined using human recombinant MAP kinase 1.
The human recombinant MAP kinase 1 was reacted with 50.0 μg/mL of myelin basic protein and the amount of ^32P phosphorylated myelin basic protein which was a reaction product was measured by a radioactivity measurement method. 3 μM of the compound according to the present invention dissolved in dimethyl sulfoxide was added to the reaction system and the inhibition rate of ^32P phosphorylated myelin basic protein generation (MAP kinase 1 activity inhibition rate) was measured.

CC(=O)N1CCN(c2ccc(N)c(-n3ccnc3)c2)CC1 [Compound 1-1, 4-acetyl-1-(4-amino-3-imidazole-1-yl-phenyl)piperazine]
ONL thickness improvement rate [1]: 100.6%
inhibition at 3 µM [2]: 32%
lipid peroxidase activity inhibition rate [3]: 13%
MAP kinase 1 activity inhibition rate [4]: 13%

Reference: US20160145242A1, “PHENYLIMIDAZOLE DERIVATIVE, AND THERAPEUTIC MEDICINE OR PREVENTIVE MEDICINE FOR INFLAMMATORY DISEASE, ETC” (NIPPON SODA CO., LTD., priority 2013, published 2016)
